Results reported in PMC9808370 (Molecular cancer therapeutics, 2023).
Read-outs that look alike come from different tables or passages of the source. Each block holds one compound with its values, some of them ahead of it.

Tests used:
HD-MB03 cells [1] = experiment: cells; assay type: cell-based, human
HD-MB03 cells [2] = conditions: HD-MB03, 1h exposure
[3] = system: G3MB and SHHMB tumor cells; experiment: Single agent drug screen, statements over the panel of MB models; assay type: cell-based, human; conditions: most potent compounds over the MB models
HD-MB03 cells [4] = system: HD-MB03 cells
[5] = system: SJMBSHH-13-5634 intracranial PDX
[6] = system: HD-MB03 intracranial xenograft; experiment: Pre-clinical trial, survival of intracranial tumor bearing mice; assay type: in vivo, mouse
[7] = system: MYC, CYCLIN E, p27KIP1 expression in HD-MB03 cells; experiment: Immunoblotting; assay type: cell-based, human; conditions: HD-MB03, 72h, 5μM ribociclib, 0.3μM JQ1, 0.5μM paxalisib
[8] = Toxicity measurement in tumor bearing mice; assay type: in vivo, mouse
[9] = adult patients, once a day dosing; cited from earlier work
[10] = system: MB002 intracranial xenograft; experiment: Pre-clinical trial, survival of intracranial tumor bearing mice; assay type: in vivo, mouse; conditions: 10 mg/kg

SMILES: Cc1sc2c(c1C)C(c1ccc(Cl)cc1)=N[C@@H](CC(=O)OC(C)(C)C)c1nnc(C)n1-2 [JQ1]
IC20 (HD-MB03 cells [1]; HD-MB03, anchor concentration): 0.132 µM
IC50 (HD-MB03 cells [2]): > 2 µM

IC50 (in words) [3]: picomolar to low nanomolar range
SMILES: Cc1nc(Nc2n[nH]c3c2CN(C(=O)N[C@H](CN(C)C)c2ccccc2)C3(C)C)c2sccc2n1 [PF-03758309]

EC50 fold improvement (IC50 fold change of drug partner) (HD-MB03 cells [4]): 12.8 fold
SMILES: CCN1CCN(Cc2ccc(Nc3ncc(F)c(-c4cc(F)c5nc(C)n(C(C)C)c5c4)n3)nc2)CC1 [abemaciclib]

EC50 fold improvement (IC50 fold change of drug partner) (HD-MB03 cells [4]): 30.5 fold
SMILES: CC(=O)c1c(C)c2cnc(Nc3ccc(N4CCNCC4)cn3)nc2n(C2CCCC2)c1=O [palbociclib]

IC50 (in words) [3]: picomolar to low nanomolar range
SMILES: CON(C)C(=O)N1N=C(c2cc(F)ccc2F)S[C@@]1(CCCN)c1ccccc1 [ARRY-520 /filanesib, filanesib]

SMILES: CN(C)C(=O)c1cc2cnc(Nc3ccc(N4CCNCC4)cn3)nc2n1C1CCCC1 [ribociclib]
IC20 (HD-MB03 cells [1]; Homo sapiens, HD-MB03): 5 µM
Median survival ([5]; 100 mg/kg): 71.5 days
Median survival ([6]; 100 mg/kg): 25 days
MYC, CYCLIN E, p27KIP1 protein expression [7]: increased expression of MYC and CYCLIN E proteins
complete blood counts (in words) ([8]; MB002-bearing mice, ribociclib 100mg/kg, JQ1 50mg/kg daily): mild leukopenia
EC50 fold improvement (IC50 fold change of drug partner) (HD-MB03 cells [4]; Fig. 2D, 0.132μM JQ1 anchor, HD-MB03): 7.8 fold

SMILES: CC1(C)OCCn2c1nc1c(N3CCOCC3)nc(-c3cnc(N)nc3)nc12 [paxalisib]
maximum tolerated dose [9]: 45 mg/day
Median survival [10]: 33.5 days
Median survival ([5]; 10 mg/kg): 46 days
Median survival ([6]; 10 mg/kg): 27 days
body weight and body condition ([8]; MB bearing mice, paxalisib 10mg/kg alone or with ribociclib 100mg/kg): severe weight loss and had poor body condition

IC50 (in words) [3]: picomolar to low nanomolar range
SMILES: CCc1c2c(nc3ccc(O)cc13)-c1cc3c(c(=O)n1C2)COC(=O)[C@]3(O)CC [SN-38]

IC50 (in words) [3]: picomolar to low nanomolar range
SMILES: Cc1csc(-c2nnc(Nc3ccc(Oc4ncccc4-c4ccnc(N)n4)cc3)c3ccccc23)c1 [AMG-900]
